Experimental data from PubChem BioAssay (NCI).
Where “and” joins values, the source holds several entries; their conditions need not be identical. Equal values may be shown once.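 Method: 48-hour compound exposure of cells in 96-well plates, five concentrations, linear interpolation of endpoints. GI50 marks 50% less growth. The concentration for full growth arrest is given as TGI.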

Experiments:
Test in all cases: growth of human tumour cells (NCI), 48 h
HOP-92 NSCLC = system: HOP-92 NSCLC
SF-295 CNS = system: SF-295 CNS
SK-MEL-2 melanoma = system: SK-MEL-2 melanoma
NCI-H23 lung = system: NCI-H23 lung
COLO 205 colon = system: COLO 205 colon
SK-MEL-5 melanoma = system: SK-MEL-5 melanoma
ACHN renal = system: ACHN renal
MALME-3M melanoma = system: MALME-3M melanoma
SW-620 colon = system: SW-620 colon
OVCAR-3 ovarian = system: OVCAR-3 ovarian

Row | SMILES | GI50 (HOP-92 NSCLC) | TGI (HOP-92 NSCLC) | GI50 (SF-295 CNS) | TGI (SF-295 CNS) | GI50 (SK-MEL-2 melanoma) | TGI (SK-MEL-2 melanoma) | GI50 (NCI-H23 lung) | TGI (NCI-H23 lung) | GI50 (COLO 205 colon) | TGI (COLO 205 colon) | GI50 (SK-MEL-5 melanoma) | TGI (SK-MEL-5 melanoma) | GI50 (ACHN renal) | TGI (ACHN renal) | GI50 (MALME-3M melanoma) | TGI (MALME-3M melanoma) | GI50 (SW-620 colon) | TGI (SW-620 colon) | TGI (OVCAR-3 ovarian) | GI50 (OVCAR-3 ovarian)
1 | CCN(CC)CCOc1ccc(-c2nc3cc(Cl)ccc3s2)cc1 | 1.22 µM | 4.2 µM | 1.38 µM | 2.77 µM | 1.89 µM | 3.59 µM | 1.64 µM | 3.32 µM | 1.45 µM | 2.76 µM | 1.54 µM | 2.88 µM | 1.58 µM | 2.94 µM | 1.45 µM | 2.8 µM | 1.53 µM | 2.93 µM | – | –
2 | COC(=O)C(=Cc1cc(OC)ccc1OC)C(=O)OC | – | 60 µM | – | 82.1 µM | – | 50.1 µM | – | – | – | 34.1 µM | – | 42.7 µM | – | 35.1 µM | – | 74.6 µM | – | 55.6 µM | 50.6 µM | –
3 | Cc1cc([N+](=O)[O-])ccc1Nc1cccc(Cl)c1C | – | – | – | 34.6 µM | – | 29 µM | – | 33.3 µM | – | 31.3 µM | – | 29.1 µM | – | 41.4 µM | – | 29.2 µM | – | 62.7 µM | 27.8 µM | –
4 | Cc1ccc(C)c(C2=C(c3cn(C)c4ccccc34)C(=O)NC2=O)c1 | – | – | 4.4 µM | > 19.4 µM | > 25 µM | > 25 µM | > 25 µM | > 25 µM | 7.36 µM | > 25 µM | > 25 µM | > 25 µM | 9.15 µM | > 25 µM | > 25 µM | > 25 µM | 13 µM | > 25 µM | > 25 µM | 15.1 µM
5 | Cc1ccc(Cc2c(=O)[nH]nc3ccccc23)cc1 | – | > 100 µM | – | > 100 µM | – | > 100 µM | – | > 100 µM | – | > 100 µM | – | > 100 µM | – | > 100 µM | – | > 100 µM | – | > 100 µM | > 100 µM | –
6 | COc1cnc2c(c1)C(=O)c1c-2n(CCCNC(C)C)c(=O)c2cc(Cl)ccc12 | 1.05 µM | 2.44 µM | 0.0523 µM | 1.43 µM | 13.3 µM | 34.9 µM | – | – | 0.111 µM | 2 µM | 1.14 µM | 2.38 µM | – | – | 1.5 µM | 3.07 µM | 0.0503 µM | 1.71 µM | 3.02 µM | 1.39 µM
7 | CC(C)N(C(=O)C12C3C4C5(C#N)C3C1(C#N)C5C42I)C(C)C (stereo not given) | – | > 100 µM | – | > 100 µM | – | > 100 µM | – | > 100 µM | – | > 65.1 µM | – | > 100 µM | – | > 100 µM | – | > 100 µM | – | > 66 µM | > 100 µM | –
8 | CCN(CC)CCC(CNc1ccnc2cc(Cl)ccc12)c1ccc(OC)cc1 (stereo not given) | 2.42 µM and 2.12 µM | 14.3 µM and 11.5 µM | 2.87 µM and 1.95 µM | 10.2 µM and 7.8 µM | 15.4 µM and 2.02 µM | 33.1 µM and 4.07 µM | 9.4 µM and 10 µM | 26.9 µM and 28.6 µM | 1.9 µM and 1.34 µM | 4.3 µM and 2.95 µM | 1.64 µM | 3.09 µM | 5.24 µM and 2.77 µM | 19.1 µM and 9.6 µM | 1.95 µM and 1.86 µM | 3.76 µM and 3.64 µM | 8.16 µM and 4.1 µM | 22.6 µM and 21.7 µM | 66.3 µM and 33.1 µM | 16.7 µM and 6.96 µM
